In ChEMBL document CHEMBL1667842, “Benzyl benzoates: New phlorizin analogs as mushroom tyrosinase inhibitors” (Bioorg Med Chem, 2011):
The source made the active and inactive calls. No cut-off for these calls is given here.

Key:
Tyrosinase [1] = target: T1, Tyrosinase (Agaricus bisporus, UniProt O42713)
T1 sequence (O42713 whole entry): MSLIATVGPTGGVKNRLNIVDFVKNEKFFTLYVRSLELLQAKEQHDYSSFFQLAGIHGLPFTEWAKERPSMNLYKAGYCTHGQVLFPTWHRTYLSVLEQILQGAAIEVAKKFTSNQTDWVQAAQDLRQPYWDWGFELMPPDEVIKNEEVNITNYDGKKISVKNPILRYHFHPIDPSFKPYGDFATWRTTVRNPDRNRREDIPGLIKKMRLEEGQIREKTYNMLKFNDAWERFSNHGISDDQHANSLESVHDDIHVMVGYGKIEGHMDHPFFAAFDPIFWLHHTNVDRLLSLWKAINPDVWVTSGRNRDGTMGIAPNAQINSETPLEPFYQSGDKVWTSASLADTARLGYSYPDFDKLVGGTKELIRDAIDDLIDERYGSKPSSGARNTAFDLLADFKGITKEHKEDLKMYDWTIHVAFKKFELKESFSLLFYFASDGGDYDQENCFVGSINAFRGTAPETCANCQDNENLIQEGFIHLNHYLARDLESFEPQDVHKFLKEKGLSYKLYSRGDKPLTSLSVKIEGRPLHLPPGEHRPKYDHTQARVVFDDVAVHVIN
Description: Inhibition of mushroom tyrosinase preincubated for 20 mins

[2] = target: T2, Tyrosinase (Agaricus bisporus) (UniProt O42713); assay: (§1) Competitive inhibition of mushroom tyrosinase by Lineweaver-Burk plot analysis
T2 sequence (whole entry): T1 sequence (O42713 whole entry)

Tyrosinase [3] = target: T1, Tyrosinase; assay: as §1

| SMILES | IC50 (Tyrosinase [1]) [µM] | Activity [2] | Ki (Tyrosinase [3]) [µM] |
| --- | --- | --- | --- |
| O=C(OCc1ccc(O)cc1)c1cc(O)ccc1O [4-HYDROXYBENZYL 2,5-DIHYDROXYBENZOATE] | 12.3 | – | – |
| O=C(OCc1ccccc1O)c1cc(O)c(O)c(O)c1 | > 100 | – | – |
| O=C(OCc1ccc(O)cc1)c1cc(O)cc(O)c1 [4-HYDROXYBENZYL 3,5-DIHYDROXYBENZOATE] | 5.84 | Active | – |
| O=C(OCc1ccc(O)cc1)c1ccc(O)cc1O | 4.69 | – | 1.11 |
| O=C(OCc1ccc(O)cc1)c1c(O)cc(O)cc1O [4-HYDROXYBENZYL 2,4,6-DIHYDROXYBENZOATE] | 8 | Active | – |
| O=C(OCc1ccccc1O)c1c(O)cc(O)cc1O | 19.9 | – | – |
| O=C(OCc1ccccc1O)c1cc(O)ccc1O | > 100 | – | – |
| O=C(OCc1cccc(O)c1)c1cc(O)ccc1O [3-HYDROXYBENZYL 2,5-DIHYDROXYBENZOATE] | 24.4 | – | – |
| O=C(OCc1ccc(O)cc1)c1cc(O)c(O)c(O)c1 [4-HYDROXYBENZYL GALLATE] | 25.7 | – | – |
| O=C(OCc1cccc(O)c1)c1cc(O)c(O)c(O)c1 | 11.5 | – | – |
| O=C(OCc1cccc(O)c1)c1cc(O)cc(O)c1 | 6.11 | Active | – |
| O=C(OCc1ccccc1O)c1ccc(O)cc1O | 66.2 | – | – |
| O=C(OCc1ccccc1O)c1cc(O)cc(O)c1 | 19.9 | – | – |
| O=C(OCc1cccc(O)c1)c1ccc(O)cc1O | 6.23 | Active | – |
